Experimental data taken from ChEMBL document CHEMBL1146463, “A pair of new C-21 steroidal glycoside epimers from the roots of Cynanchum paniculatum” (2004).
In brackets after ≈: the same amount, converted by molar mass.

Test system: Staphylococcus aureus
Test: Antibacterial activity against methicillin-resistant Staphylococcus aureus after 20 hrs
Assay type: functional

Structure (SMILES)	MIC [µg/mL]
CO[C@@H]1C[C@H](O[C@H]2CC[C@@]3(C)C(=CC[C@H]4C(=O)O[C@@H]5CO[C@]6(C)O[C@H](O)/C(=C/C[C@@H]43)[C@H]56)C2)O[C@H](C)[C@H]1O [PANICULATUMOSIDE A]	180 (≈ 345 µM)
CO[C@@H]1C[C@H](O[C@H]2CC[C@@]3(C)C(=CC[C@H]4C(=O)O[C@H]5CO[C@]6(C)O[C@@H](O)/C(=C/C[C@@H]43)[C@H]56)C2)O[C@H](C)[C@H]1O [PANICULATUMOSIDE B]	149 (≈ 285 µM)
CC(=O)OCC1=C(C(=O)O)N2C(=O)[C@@H](NC(=O)CSc3ccncc3)[C@H]2SC1 [CEPHAPIRIN]	10.5 (≈ 24.8 µM)
